# Tests used:
# Type in all cases: in vivo
# [1] = system: Cocklebur; assay: Post-emergent herbicidal test; details: 4 WAT, 11.2 kg/h
# Method: (§1) The post-emergent tests were conducted as follows:
# (§2) The active ingredients are applied in spray form to two or three week old specimens of various plant species. The spray, a solution or wettable powder suspension containing the appropriate rate of active ingredient to give the desired test rate and a surfactant, is applied to the plants.
# (§3) The compounds were also tested by utilizing the above procedure on the following plant species: […]
# [2] = system: Canada Thistle; assay: Post-emergent herbicidal test; details: 4 WAT, 11.2 kg/h
# Method: as §1, §2, §3
# [3] = system: Yellow Nutsedge; assay: Post-emergent herbicidal test; details: 4 WAT, 11.2 kg/h
# Method: as §1, §2, §3
# [4] = system: Morningglory; assay: Post-emergent herbicidal test; details: 4 WAT, 11.2 kg/h
# Method: as §1, §2, §3
# [5] = system: Downy Brome; assay: Post-emergent herbicidal test; details: 4 WAT, 11.2 kg/h
# Method: as §1, §2, §3
# [6] = system: Velvetleaf; assay: Post-emergent herbicidal test; details: 4 WAT, 11.2 kg/h
# Method: as §1, §2, §3
# [7] = system: Lambsquarters; assay: Post-emergent herbicidal test; details: 4 WAT, 11.2 kg/h
# Method: as §1, §2, §3
# [8] = system: Quackgrass; assay: Post-emergent herbicidal test; details: 4 WAT, 11.2 kg/h
# Method: as §1, §2, §3
# [9] = system: Barnyardgrass; assay: Post-emergent herbicidal test; details: 4 WAT, 11.2 kg/h
# Method: as §1, §2, §3
# [10] = system: Johnsongrass; assay: Post-emergent herbicidal test; details: 4 WAT, 11.2 kg/h
# Method: as §1, §2, §3
# [11] = system: Smartweed; assay: Post-emergent herbicidal test; details: 4 WAT, 11.2 kg/h
# Method: as §1, §2, §3
# [12] = system: Wild Buckwheat; assay: Pre-emergent herbicidal test; details: 4 WAT
# Method: (§4) The pre-emergent test was conducted as follows:
# (§5) A good grade of top soil was placed in aluminum pans and compacted to a depth of three-eighths to one-half inch from the top of the pan. On the top of the soil was placed a predetermined number of seeds or vegetative propagules of various plant species which were pressed into the soil surface. The soil required to level fill the pans after seeding or adding vegetative propagules was weighed into a pan. A known amount of the active ingredient applied in a solvent or as a wettable powder and the soil were thoroughly mixed, and used as a cover layer for prepared pans.
# (§6) The herbicidal rating was obtained by means of a fixed scale based on the percent injury of each plant species. The ratings are defined as follows: […]
# [13] = system: Sorghum; assay: Pre-emergent herbicidal test; details: 4 WAT
# Method: as §4, §5, §6
# [14] = system: Crabgrass; assay: Pre-emergent herbicidal test; details: 4 WAT
# Method: as §4, §5, §6
# [15] = system: Rice; assay: Pre-emergent herbicidal test; details: 4 WAT
# Method: as §4, §5, §6
# [16] = system: Panicum Spp.; assay: Pre-emergent herbicidal test; details: 4 WAT
# Method: as §4, §5, §6
# [17] = system: Soybean; assay: Pre-emergent herbicidal test; details: 4 WAT
# Method: as §4, §5, §6
# [18] = system: Wheat; assay: Pre-emergent herbicidal test; details: 4 WAT
# Method: as §4, §5, §6
# [19] = system: Hemp Sesbania; assay: Pre-emergent herbicidal test; details: 4 WAT
# Method: as §4, §5, §6
# [20] = system: Sugarbeet; assay: Pre-emergent herbicidal test; details: 4 WAT
# Method: as §4, §5, §6
# [21] = system: Cocklebur; assay: Pre-emergent herbicidal test; details: 4 WAT
# Method: as §4, §5, §6, §3
# [22] = system: Canada Thistle; assay: Pre-emergent herbicidal test; details: 4 WAT, 11.2 kg/h
# Method: as §4, §5, §6, §3
# [23] = system: Yellow Nutsedge; assay: Pre-emergent herbicidal test; details: 4 WAT, 11.2 kg/h
# Method: as §4, §5, §6, §3
# [24] = system: Morningglory; assay: Pre-emergent herbicidal test; details: 4 WAT
# Method: as §4, §5, §6, §3
# [25] = system: Downy Brome; assay: Pre-emergent herbicidal test; details: 4 WAT
# Method: as §4, §5, §6, §3
# [26] = system: Velvetleaf; assay: Pre-emergent herbicidal test; details: 4 WAT
# Method: as §4, §5, §6, §3
# [27] = system: Lambsquarters; assay: Pre-emergent herbicidal test; details: 4 WAT
# Method: as §4, §5, §6, §3
# [28] = system: Quackgrass; assay: Pre-emergent herbicidal test; details: 4 WAT, 11.2 kg/h
# Method: as §4, §5, §6, §3
# [29] = system: Barnyardgrass; assay: Pre-emergent herbicidal test; details: 4 WAT
# Method: as §4, §5, §6, §3
# [30] = system: Johnsongrass; assay: Pre-emergent herbicidal test; details: 4 WAT, 11.2 kg/h
# Method: as §4, §5, §6, §3
# [31] = system: Smartweed; assay: Pre-emergent herbicidal test; details: 4 WAT
# Method: as §4, §5, §6, §3
# Note: ranges in brackets are in %.
compound,measurement,setting,value
"O=C(O)c1ccccc1-c1cc(-c2cccc(C(F)(F)F)c2)no1 [Example 11, 2-[3-(3-Trifluoromethylphenyl)-5-Isoxazolyl]Benzoic Acid]",herbicidal rating,[1],1 (25-49)
same,herbicidal rating,[2],1 (25-49)
same,herbicidal rating,[3],1 (25-49)
same,herbicidal rating,[4],1 (25-49)
same,herbicidal rating,[5],2 (50-74)
same,herbicidal rating,[6],1 (25-49)
same,herbicidal rating,[7],2 (50-74)
same,herbicidal rating,[8],0 (0-24)
same,herbicidal rating,[9],2 (50-74)
same,herbicidal rating,[10],1 (25-49)
same,herbicidal rating,[11],2 (50-74)
same,herbicidal rating,[12]; 1.12 kg/h,2 (50-74)
same,herbicidal rating,[12]; 5.60 kg/h,3 (75-100)
same,herbicidal rating,[13]; 1.12 kg/h,1 (25-49)
same,herbicidal rating,[13]; 5.60 kg/h,3 (75-100)
same,herbicidal rating,[14]; 1.12 kg/h,2 (50-74)
same,herbicidal rating,[14]; 5.60 kg/h,3 (75-100)
same,herbicidal rating,[15]; 1.12 kg/h,3 (75-100)
same,herbicidal rating,[15]; 5.60 kg/h,3 (75-100)
same,herbicidal rating,[16]; 1.12 kg/h,2 (50-74)
same,herbicidal rating,[16]; 5.60 kg/h,3 (75-100)
same,herbicidal rating,[17]; 1.12 kg/h,3 (75-100)
same,herbicidal rating,[17]; 5.60 kg/h,3 (75-100)
same,herbicidal rating,[18]; 1.12 kg/h,0 (0-24)
same,herbicidal rating,[18]; 5.60 kg/h,1 (25-49)
same,herbicidal rating,[19]; 1.12 kg/h,3 (75-100)
same,herbicidal rating,[19]; 5.60 kg/h,2 (50-74)
same,herbicidal rating,[20]; 1.12 kg/h,2 (50-74)
same,herbicidal rating,[20]; 5.60 kg/h,2 (50-74)
same,herbicidal rating,[21]; 1.12 kg/h,0 (0-24)
same,herbicidal rating,[21]; 5.60 kg/h,1 (25-49)
same,herbicidal rating,[21]; 11.2 kg/h,3 (75-100)
same,herbicidal rating,[22],3 (75-100)
same,herbicidal rating,[23],1 (25-49)
same,herbicidal rating,[24]; 1.12 kg/h,1 (25-49)
same,herbicidal rating,[24]; 5.60 kg/h,2 (50-74)
same,herbicidal rating,[24]; 11.2 kg/h,2 (50-74)
same,herbicidal rating,[25]; 1.12 kg/h,2 (50-74)
same,herbicidal rating,[25]; 5.60 kg/h,2 (50-74)
same,herbicidal rating,[25]; 11.2 kg/h,3 (75-100)
same,herbicidal rating,[26]; 1.12 kg/h,1 (25-49)
same,herbicidal rating,[26]; 5.60 kg/h,2 (50-74)
same,herbicidal rating,[26]; 11.2 kg/h,3 (75-100)
same,herbicidal rating,[27]; 1.12 kg/h,2 (50-74)
same,herbicidal rating,[27]; 5.60 kg/h,3 (75-100)
same,herbicidal rating,[27]; 11.2 kg/h,2 (50-74)
same,herbicidal rating,[28],3 (75-100)
same,herbicidal rating,[29]; 1.12 kg/h,3 (75-100)
same,herbicidal rating,[29]; 5.60 kg/h,2 (50-74)
same,herbicidal rating,[29]; 11.2 kg/h,3 (75-100)
same,herbicidal rating,[30],0 (0-24)
same,herbicidal rating,[31]; 1.12 kg/h,2 (50-74)
same,herbicidal rating,[31]; 5.60 kg/h,3 (75-100)
same,herbicidal rating,[31]; 11.2 kg/h,3 (75-100)

# From US4229204A, “Trifluoromethylphenyl isoxazolyl benzoates” (Monsanto Company, priority 1978, dated 1980)
